Results taken from the supplement of paper PMC6470124.

What was measured:
[1] = absolute recovery over vacuum-assisted evaporative concentration; higher = better recovery; details: enrichment method: VEC
How it was run: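 After spiking with standards before concentration, after concentration or not at all, at 1000 ng/L for wastewater or 200 ng/L for nanopure and surface water with class- and compound-specific adjustments, samples of 6 mL influent, 15 mL effluent and 60 mL surface or nanopure water were evaporated at 55 °C and 20 mbar to about 0.3 mL. They were brought to 0.4 mL, centrifuged, given internal standards and analysed by LC-HRMS/MS. Absolute recovery, (response ratio pre − unspiked)/(post − unspiked) × 100, used averages of ≥ 2 replicates.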

[2] = absolute recovery over mixed-bed multilayer solid-phase extraction; higher = better recovery; details: enrichment method: SPE
How it was run: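 A three-layer mixed-bed cartridge was loaded with 100–250 mL of wastewater (adjusted to pH 6.5, glass-fibre filtered) or 1000 mL of unfiltered nanopure water, then eluted with basic and subsequently acidic ethyl acetate/methanol. Standards were introduced pre-extraction, post-extraction, or not at all, at 200 ng/L for water and 1000 ng/L for wastewater, except for certain classes. Once internal standards had been added, both ionisation modes were run by liquid chromatography with high-resolution tandem mass spectrometry. Absolute recovery was derived from background-corrected response ratios of pre- against post-spiked samples, averaged over at least two replicates.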

[3] = LC retention time (Atlantis T3, 5-95% MeOH gradient, 0.1% formic acid); higher = more retained / less polar
How it was run: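 Retention times refer to reference standards measured by liquid chromatography with high-resolution tandem mass spectrometry. Separation was on an Atlantis T3 C18 column (3 × 150 mm, 3 μm) at 0.3 mL/min with a 5 to 95% methanol gradient over 17.5 min, both solvents carrying 0.1% formic acid. Positive and negative electrospray were run separately on a QExactive Plus, and TraceFinder peak integration (5 ppm tolerance, at least three points per peak) was reviewed by hand.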

SMILES	absolute recovery ([1]; wastewater effluent) [%]	absolute recovery ([1]; wastewater influent) [%]	absolute recovery ([2]; nanopure water) [%]	absolute recovery ([2]; surface water) [%]	absolute recovery ([2]; wastewater effluent) [%]	absolute recovery ([2]; wastewater influent) [%]	LC retention time [3] [min]
CCC1OC(=O)C(C)C(OC2CC(C)(OC)C(O)C(C)O2)C(C)C(OC2OC(C)CC([N+](C)(C)[O-])C2O)C(C)(OC)CC(C)C(=O)C(C)C(O)C1(C)O (configuration not stated) [Clarithromycin-N-Oxide]	103	95.9	91.1	85.3	96.6	93.9	17.3
CC1(C(=O)Nc2ccc(O)c(Cl)c2Cl)CCCCC1 [Fenhexamid]	92.1	96.3	102	–	–	97	20.1
C#CC[N+](C)([O-])C(C)Cc1ccccc1 (configuration not stated) [Deprenyl-N-Oxide]	102	106	68.6	71.5	70.5	77.3	12.2
Cc1nc2n(c(=O)c1CC[NH+]1CCC(c3noc4cc(F)ccc34)CC1)CCCC2 [Risperidone]	98.7	102	90.1	98.4	93.3	82	13.3
CC(Cc1ccc(C(C)(C)C)cc1)C[NH+]1CCCCC1 (configuration not stated) [Fenpropidin]	146	46.3	–	107	94.1	67.3	16.4
CC(Oc1ccc(Oc2ncc(C(F)(F)F)cc2Cl)cc1)C(=O)[O-] (configuration not stated) [Haloxyfop]	102	95.4	84.3	73.9	84.4	95.4	21
COC=C(C(=O)OC)c1ccccc1Oc1cc(Oc2ccccc2C#N)ncn1 [Azoxystrobin]	102	99.4	96.9	96	92.8	93.6	18.9
Nc1cnn(-c2ccccc2)c(=O)c1Cl [Chloridazon]	104	104	97.1	98.1	–	96.1	14.7
Cn1sc(Cl)cc1=O [5-Chloro-2-methyl-4-isothiazolin-3-on (=CMI)]	65.2	–	85.1	56.7	66.5	–	12.4
CNC(=O)ON=C(C)SC [Methomyl]	98.3	110	82.7	77.3	79	79.3	11.9
CC1CC2C(C(O)CC3(C)C2CCC3(O)C(=O)CO)C2(C)C=CC(=O)C=C12 (configuration not stated) [Methylprednisolon]	106	101	93.1	92.3	84.4	88.4	18.9
CC(C)[NH2+]CC(O)c1ccc(NS(C)(=O)=O)cc1 (configuration not stated) [Sotalol]	104	103	96.1	93	92.5	92	8.25
O=C1C(Cl)C(CCl)CN1c1cccc(C(F)(F)F)c1 (configuration not stated) [Flurochloridon]	92	60.5	98.1	104	106	98	19.9
Cn1cc(C(=O)Nc2ccc(F)cc2-c2ccc(Cl)c(Cl)c2)c(C(F)F)n1 [Bixafen]	109	108	95.4	101	102	76.1	20.5
CCc1cccc(C)c1N(C(=O)CCl)C(C)COC (configuration not stated) [Metolachlor]	93.1	91.7	–	93	90.6	92.5	20.6
O=c1c(-c2ccc(O)cc2)coc2cc([O-])cc(O)c12 [Genistein]	93	89.9	99.2	103	99.5	93.3	17.9
C[NH+](C)CC(c1ccc(O)cc1)C1(O)CCCCC1 (configuration not stated) [O-Desvenlafaxin]	–	97.9	97.4	89.9	90.6	77.7	12
N#CN=C1SCCN1Cc1ccc(Cl)nc1 [Thiacloprid]	102	106	97.8	–	96.9	87.5	15.1
CC(C)(Oc1ccc(Cl)cc1)C(=O)[O-] [Clofibric-acid]	105	103	96.4	94.1	93.9	92.9	19.3
CC(C)c1c(C(=O)Nc2ccccc2)c(-c2ccccc2)c(-c2ccc(F)cc2)n1CCC(O)CC(O)CC(=O)[O-] (configuration not stated) [Atorvastatin]	49.3	57.8	31	42.7	45.5	46.5	19.8
CC1(C)CC1C(=O)NC(=CCCCCSCC([NH3+])C(=O)[O-])C(=O)[O-] (configuration not stated) [Cilastatin]	103	80.5	47.7	13.1	19.5	37	13.6
O=c1[nH]cc(F)c(=O)[nH]1 [5-Fluorouracil]	79.1	69.1	5	7.7	7.4	9.3	5.37
CS(=O)(=O)c1ccc(C(=O)[C-]2C(=O)CCCC2=O)c(Cl)c1COCC(F)(F)F [Tembotrione]	104	116	91.7	89.4	90.9	91.3	18.9
CC(C)Nc1nc(N)nc(Cl)n1 [Atrazin-Desethyl]	102	101	92.5	96.9	92.1	91.6	15.3
CN1COCN(Cc2cnc(Cl)s2)C1=N[N+](=O)[O-] [Thiamethoxam]	100	105	98.4	93.9	96.3	94.2	12.2
COC(=O)C(Cc1ccccc1)NC(=O)C(CC(=O)[O-])[NH2+]CCC(C)(C)C (configuration not stated) [Neotam]	89.2	81.8	91.9	91.3	93.8	95.2	17.2

SMILES	absolute recovery ([1]; wastewater effluent) [%]	absolute recovery ([1]; wastewater influent) [%]	absolute recovery ([2]; nanopure water) [%]	absolute recovery ([2]; surface water) [%]	absolute recovery ([2]; wastewater effluent) [%]	absolute recovery ([2]; wastewater influent) [%]	LC retention time [3] [min]
COC(=O)c1ccccc1S(=O)(=O)[N-]C(=O)N(C)c1nc(C)nc(OC)n1 [Tribenuron-methyl]	124	119	–	24.9	38	–	18.1
CC(COc1ccccc1Cc1ccccc1)[NH+]1CCCCC1 (configuration not stated) [Benproperine]	117	109	93.2	111	93.7	70.7	16.2
Cc1ccc(NC=O)c(C)c1 [2-4-dimethylphenylformamid]	108	132	107	101	99.8	96.3	16.5
CCOP(=O)(OCC)OCC [Triethylphosphat]	83.5	79.6	76.6	87.7	81.5	–	15.9
C[NH2+]C(C)C(=O)c1ccc(C)cc1 (configuration not stated) [Mephedron (=4-Methylmethcathinon)]	76.7	71.4	62.3	66.2	62.8	72.7	11.4
O=C([O-])c1cc(Oc2ccc(Cl)cc2Cl)ccc1[N+](=O)[O-] [Bifenox-acid]	104	108	75.6	63.6	77	124	23.4
O=C([O-])c1ccc(-c2ccccc2-c2nn[nH]n2)cc1 [Valsartan-acid]	–	104	96.4	101	–	95.2	16.4
Cc1cccc(C)c1N(Cn1cccn1)C(=O)CCl [Metazachlor]	104	96	96.5	97	93.4	94.5	18.3
CCCCCCCCCCCC[N+](C)(C)C [Dodecyltrimethylammonium]	99.1	–	84.2	114	69.5	33.9	17.9
OCC1OC(OC2(CCl)OC(CCl)C(O)C2O)C(O)C(O)C1Cl (configuration not stated) [Sucralose]	–	108	95	–	–	–	13.4
C1=Cc2ccccc2Nc2ccccc21 [Iminostilben]	22.9	37.9	90.1	82.6	79.4	89	20
COC(=O)c1ccc(C(F)(F)F)nc1S(=O)(=O)[N-]C(=O)Nc1nc(OC)cc(OC)n1 [Flupyrsulfuron-methyl-]	65.8	59.1	98.2	97.5	93.6	89.3	19.2
CC(C)(C)C(=O)C(Oc1ccc(Cl)cc1)n1ccnc1 (configuration not stated) [Climbazol]	106	101	98.6	96.1	91.7	90.1	16.5
CC[NH+](CC)CC(=O)Nc1c(C)cccc1C [Lidocain]	101	99.4	97.1	96.5	93.5	95	11.2
COC(=O)c1csc(C)c1S(=O)(=O)[N-]C(=O)n1nc(OC)n(C)c1=O [Thiencarbazone]	110	106	104	93.9	92.6	87	16.5
CC12CCC(=O)C=C1CCC1C2C(O)CC2(C)C(C(=O)CO)CCC12 (configuration not stated) [Corticosteron]	111	55.6	87.8	71.9	71.8	89.1	19
CC(=O)OC1C(C)OC(n2cc(F)c(N)nc2=O)C1OC(C)=O (configuration not stated) [2-3-di-O-acetyl-5-deoxy-5-fluorocytidin]	101	91.8	102	100	92.7	84.6	13.9
COc1cc2[nH+]c(N3CCN(C(=O)C4COc5ccccc5O4)CC3)nc(N)c2cc1OC (configuration not stated) [Doxazosin]	107	107	92.5	114	108	56.7	15.3
CCCN(CCOc1c(Cl)cc(Cl)cc1Cl)C(=O)n1ccnc1 [Prochloraz]	103	101	99.3	96.4	93.9	92.3	20.6
C[NH+]=CNc1ccc(C)cc1C [N-(2-4-dimethylphenyl)-N-methylformamidine]	76.9	79.1	35.1	27.7	47.9	52.5	11.1
CC(O)C(=O)Nc1c(I)c(C(=O)NC(CO)CO)c(I)c(C(=O)NC(CO)CO)c1I (configuration not stated) [Iopamidol]	107	103	59.6	64.5	70	53	7.78
FC(F)(F)c1cccc(N2CC[NH2+]CC2)c1 [1-(3-Trifluoromethylphenyl)-piperazine]	97.4	93	66	71.9	66.4	69.9	13.6
CCC1OC(=O)C(C)C(OC2CC(C)(OC)C(O)C(C)O2)C(C)C(OC2OC(C)CC([NH2+]C)C2O)C(C)(O)CC(C)C[NH+](C)C(C)C(O)C1(C)O (configuration not stated) [N-Desmethyl-Azithromycin]	117	94.9	104	98.1	98.7	121	13.1
CC(C)(C)C(O)C(Oc1ccc(Cl)cc1)n1cncn1 (configuration not stated) [Triadimenol-A]	87.1	97.4	98.4	83.6	85.5	94.1	20
c1cncc(C2CCC[NH2+]2)c1 (configuration not stated) [Nornicotine]	111	118	65.4	–	47.9	43.6	4.38
